Test results: patent publication US20170313746A1, “Peptides Useful For Treating Cancer” (priority 2014, published 2017)
Entries after “also recorded” stand apart in the source; their conditions may differ. Non-standard residues stand in square brackets, D forms with d. Residues, ends and D or L forms follow the SMILES beside them. Phe(4-guanidino) = N=C(N)Nc1ccc(C[C@H](N)C(=O)O)cc1; Abu(4-SO3H) = N[C@@H](CCS(=O)(=O)O)C(=O)O

Legend:
[1] = test system: NCI-H460 human non-small cell lung cancer cells; details: cited from earlier work
[2] = test system: NCI-H460 human non-small-cell lung cancer cells; assay: Cell killing alone or in combination with 2-deoxyglucose, alamarBlue; format: cell-based; details: 3.125 mmol 2-DOG
Procedure: NCI-H460 human non-small-cell lung cancer cells were contacted with HILR-025 or HILR-D-07 alone or in combination with 3.125 mmol 2-DOG and cell survival was determined using AlamaBlue® cell viability reagent (Life Technologies, Inc.) in accordance with the manufacturer's instructions.

[3] = test system: Lactate Dehydrogenase A [LDHA]; assay: LDH activity assay on lysates of treated NCI-H460 cells; details: higher concentrations, particularly later time point
Procedure: Therefore a BCA assay was conducted to estimate the total amount of protein present in each LDH assay lysate and this was used to normalise the enzyme activity data. As an indication of cell viability, an Alamar blue assay was also carried out at both timepoints, to serve as an additional point of reference.
1) NCI-H460 cells were grown in Ham's F12 media supplemented with 10% FBS. 2) Cells were harvested and seeded into 96-well plates at either 500 cells/well (for the 96 h timepoint) or 5000 cells/well for the 24 h timepoint. […] 6) At the end of the assay (24 or 96 h), Alamar blue 10% (v/v) was added to one set of plates, incubated for a further 4 hours, and fluorescent product detected using the BMG FLUOstar plate reader. […] 10) LDH activity was measured in the cleared lysates using an LDH activity kit (Abeam, ab102526). 11) After preparation of the LDH activity assay reactions, according to the manufacturer's instructions, absorbance at 450 nm was measured at the initial time to determine (A450)initial 12) Further absorbance readings were taken at 3 minute intervals for up to 15 minutes.
14) The change in measurement from Tinitial to Tfinal for each sample was calculated: 11A450=(A450)final−(A450)initial 15) The NADH standard curve was used to interpolate the 11A450 for each sample to determine the amount of NADH generated by the kinase assay between Tinitial and Tfinal (B). […]

NCI-H460 cells [4] = assay: HILR-001 with or without 30 nM Olaparib, alamarBlue and CellTiter-Glo time course; format: cell-based, human
Procedure: Four concentrations of HILR-001 were tested in the presence or absence of 30 nM Olaparib; At each time point cell viability was measured by two assay readouts, alamarBlue® and CellTiter-Glo. Conversion of alamarBlue® to a fluorescent product serves as a readout of the metabolic activity of cells, whereas CellTiter-Glo is based on quantification of the ATP present.
1) NCI-H460 cells were grown in Ham's F12 media supplemented with 10% FBS. 2) Cells were harvested and seeded into 96-well plates at 500 cells/well. 3) HILR-001 was made up from a 10 mM stock solution and added directly to cells in doubling dilutions starting at 200 μM. Olaparib was made up from a 10 mM stock solution and added directly to cells at 30 nM. The total final DMSO concentration was 0.25%. 4) Cells were grown with compound for 24, 48, 72 or 96 hours at 37° C. 5% CO2 in a humidified atmosphere. 5) AlamarBlue® 10% (v/v) was then added and incubated for a further 4 hours, and fluorescent product detected using the BMG FLUOstar plate reader. 6) On duplicate plates the media was removed from the cells, CellTiter-Glo was diluted in PBS (1:10) and 100 μl added to the cells. 7) Plates were mixed on an orbital shaker for 2 minutes and incubated for a further 10 minutes at room temperature. Luminescent signal was then measured using the BMG FLUOstar plate reader.

human cancer cell lines = details: cited from earlier work
NCI-H460 cells [5] = assay: NCI-H460 cell viability, alamarBlue (resazurin), 96 hours; format: cell-based, human; details: FIG. 13
Procedure: 1) NCI-H460 cells were grown in Ham's F12 media supplemented with 10% FBS. 2) Cells were harvested and seeded into 96-well plates at 500 cells/well. 3) Compounds were made up from stock solutions and added directly to cells in doubling dilutions starting at 200 μM. Final DMSO concentration was 0.2%. 4) Cells were grown with compound for 96 hours at 37° C. 5% CO2 in a humidified atmosphere. 5) A resazurin dye composition (AlamarBlue® cell viability reagent (Life Technologies, Inc.)) 10% (v/v) was then added and incubated for a further 4 hours, and fluorescent product detected using the BMG FLUOstar plate reader. 6) Media only background readings were subtracted before data were analysed using a 4-parameter logistic equation in GraphPad Prism. The IC50 of HILR-30 was determined as 6 μM.
1) NCI-H460 cells were grown in Ham's F12 media supplemented with 10% FBS. 2) Cells were harvested and seeded into 96-well plates at 500 cells/well. 3) Olaparib was made up from stock solutions and added directly to cells in semi-log dilutions starting at 30 μM. Final DMSO concentration was 0.3%. […] 5) AlamarBlue® cell viability reagent (Life Technologies, Inc.) 10% (v/v) was then added and incubated for a further 4 hours, and fluorescent product detected using the BMG FLUOstar plate reader. 6) Data were analysed using a 4-parameter logistic equation in GraphPad Prism.

[6] = 30 nM Olaparib with 50 μM HILR-001

For CC(C)C[C@@H]1NC(=O)[C@H](C)NC(=O)[C@H](C(C)C)NC(=O)[C@@H]2CCCN2C(=O)[C@H](CCCNC(=N)N)NC(=O)[C@@H]2CCCN2C(=O)CNC(=O)[C@H](CCCNC(=N)N)NC(=O)[C@@H]2CCCN2C(=O)[C@H](CC(C)C)NC(=O)[C@H](C)NC(=O)[C@H](CC(C)C)NC(=O)[C@H](CCCCN)NC(=O)[C@H](CC(C)C)NC(=O)[C@H](C)NC(=O)[C@H](CC(C)C)NC(=O)[C@H](CCCCN)NC1=O [HILR-001] (HELM PEPTIDE1{P.R.G.P.R.P.V.A.L.K.L.A.L.K.L.A.L}$PEPTIDE1,PEPTIDE1,1:R1-17:R2$$$V2.0), the “killing NCI-H460 human non-small cell lung cancer cells” value [1] is listed as “(“THR54”) ACTIVE”.
With CC(C)[C@@H]1NC(=O)[C@@H]2CCCN2C(=O)[C@H](CCCNC(=N)N)NC(=O)[C@@H]2CCCN2C(=O)CNC(=O)[C@H](CCCNC(=N)N)NC(=O)[C@@H]2CCCN2C(=O)[C@H](Cc2c[nH]c3ccccc23)NC(=O)[C@H](Cc2c[nH]c3ccccc23)NC(=O)[C@H](CCCNC(=N)N)NC(=O)[C@H](CCCNC(=N)N)NC(=O)[C@H](Cc2c[nH]c3ccccc23)NC(=O)[C@H](Cc2c[nH]c3ccccc23)NC(=O)[C@H](CCCNC(=N)N)NC(=O)[C@H](CCCNC(=N)N)NC(=O)[C@H](Cc2c[nH]c3ccccc23)NC(=O)[C@H](Cc2c[nH]c3ccccc23)NC1=O [HILR-025] (HELM PEPTIDE1{P.R.G.P.R.P.V.W.W.R.R.W.W.R.R.W.W}$PEPTIDE1,PEPTIDE1,1:R1-17:R2$$$V2.0) the “cell killing ability with co-administration of 2-DOG” value [2] was “enhanced” and the “cell death during LDH study” value [3] was “Significant cell death”.
For CC(C)[C@@H]1NC(=O)[C@@H]2CCCN2C(=O)[C@H](CCCNC(=N)N)NC(=O)[C@@H]2CCCN2C(=O)CNC(=O)[C@H](CCCNC(=N)N)NC(=O)[C@@H]2CCCN2C(=O)[C@H](Cc2c[nH]c3ccccc23)NC(=O)[C@H](Cc2c[nH]c3ccccc23)NC(=O)[C@H](Cc2ccc(NC(=N)N)cc2)NC(=O)[C@H](Cc2ccc(NC(=N)N)cc2)NC(=O)[C@H](Cc2c[nH]c3ccccc23)NC(=O)[C@H](Cc2c[nH]c3ccccc23)NC(=O)[C@H](Cc2ccc(NC(=N)N)cc2)NC(=O)[C@H](Cc2ccc(NC(=N)N)cc2)NC(=O)[C@H](Cc2c[nH]c3ccccc23)NC(=O)[C@H](Cc2c[nH]c3ccccc23)NC1=O [HILR-030] (cyclo(PRGPRPVWW[Phe(4-guanidino)][Phe(4-guanidino)]WW[Phe(4-guanidino)][Phe(4-guanidino)]WW)), the “cell death during LDH study” value [3] was “Significant cell death”.
With O=C(c1cc(Cc2n[nH]c(=O)c3ccccc23)ccc1F)N1CCN(C(=O)C2CC2)CC1 [Olaparib, 4-[3-(4-cyclopropanecarbonylpiperazine-1-carbonyl)-4-fluorobenzyl]-2H-phthalazin-1-one] the “ATP levels (CellTiter-Glo)” value (NCI-H460 cells [4]; [6]) was “partially restored; also recorded: partially reverses”, the “HILR-001-mediated cell death (alamarBlue)” value (NCI-H460 cells [4]; [6]) was “reversed” and the “ATP levels or cancer cell death” value (NCI-H460 cells [4]; 30 nM Olaparib with 100 μM and 200 μM HILR-001) was “did not affect”.
In the case of “Cyc-[AAAGGGPRGPRPGGGAAA] (cyclic; Cyclic peptide; (1)..(18) cyclic peptide) [SEQ ID NO: 6]”, the “activity of PRGPRP cyclic peptides with non-amphiphilic backbone” value (from here on “activity … with non-amphiphilic backbone”) (human cancer cell lines) is given as “INACTIVE”.
For “Cyc-[AAGPGGPRGPRPGGPGAA] (cyclic; cyclic peptide; (1)..(18) cyclic peptide) [SEQ ID NO: 9]”, the “activity … with non-amphiphilic backbone” value (human cancer cell lines) is listed as “INACTIVE”.
In the case of “Cyc-[GGGGGGPRGPRPGGGGGG] (cyclic; cyclic peptide; (1)..(18) cyclic peptide) [SEQ ID NO: 7]”, the “activity … with non-amphiphilic backbone” value (human cancer cell lines) is listed as “INACTIVE”.
With “Cyc-[Gly-Asp-Glu-Val-NMeAsp-Sarc-Val-Trp-Trp-Arg-Arg-Trp-Trp-Arg-Arg-Trp-Trp] [HILR-D-01]” the “cell-killing of NCI-H460 cells” value (NCI-H460 cells [5]) was “weak but significant dose-related cell-killing; also recorded: mild but significant killing”.
In the case of “Cyc-[PRGPRPVKLALKLALKFP] (cyclic; cyclic peptide; (1)..(18) cyclic peptide) [THR53]”, the “killing NCI-H460 human non-small cell lung cancer cells” value [1] is given as “(“THR5”) ACTIVE”.
In the case of “Cyc-[PRGPRPVKLALKLALKLAL] (cyclic; cyclic peptide; (1)..(19) cyclic peptide) [THR52]”, the “killing NCI-H460 human non-small cell lung cancer cells” value [1] is listed as “(“THR52”) INACTIVE”.
In the case of “cyclo-[Pro-Hca-Gly-Pro-Hca-Pro-Val-Trp-Trp-Gpa-Gpa-Trp-Trp-Gpa-Gpa-Trp-Trp] (cyclo(P[Abu(4-SO3H)]GP[Abu(4-SO3H)]PVWW[Phe(4-guanidino)][Phe(4-guanidino)]WW[Phe(4-guanidino)][Phe(4-guanidino)]WW)) [HILR-D-07]”, the “cell killing ability with co-administration of 2-DOG” value [2] is reported as “enhanced”.
